# Source: EPA's ToxValDB 9.5 (doi:10.2903/j.efsa.2014.3736)
# How the values were obtained:
# [1] = short-term; duration: 28 days; no effects
# Anas platyrhynchos = conditions: reproductive
# Bibionidae = conditions: chronic/long-term; duration: 23 days; other
# Colinus virginianus = conditions: acute, oral, mortality
# Daphnia magna = conditions: chronic/long-term; duration: 21 days; mortality
# Plant = conditions: chronic/long-term; duration: 28 days; frond number
# Tagia sp. = conditions: acute; duration: 14 days; mortality
structure (smiles),measurement,setting,value
C#CCN1C(=O)COc2cc(F)c(N3C(=O)C4=C(CCCC4)C3=O)cc21 [Flumioxazin],NOEC,[1],0.15 mg/L
same,NOEL,Anas platyrhynchos,34.3 mg/kg-day
same,NOEC,Bibionidae,0.73 mg/kg
same,LD50,Colinus virginianus; diet,> 1510 mg/kg-day
same,LD50,Colinus virginianus,> 2250 mg/kg-day
same,NOEC,Daphnia magna,0.1 mg/L
same,LC50,"Oncorhynchus mykiss; acute, duration: 96 hours, mortality",2.3 µg/mL
same,NOEC,"Oncorhynchus mykiss; chronic/long-term, duration: 21 days, growth",0.37 mg/L
same,NOEC,Plant,6.3 µg/L
same,LD50,"Rattus norvegicus; acute, mortality",> 5000 mg/kg-day
same,NOAEL,"Rattus norvegicus; chronic, duration: 2 years, hematological",1.8 mg/kg-day
same,NOAEL,"Rattus norvegicus; developmental, oral, gavage, development",10 mg/kg-day
same,NOAEL,"Rattus norvegicus; reproduction developmental, growth",7.5 mg/kg-day
same,NOAEL,"Rattus norvegicus; subchronic, duration: 90 days, oral, hematological",2.2 mg/kg-day
same,LC50,Tagia sp.,> 982 mg/kg
